Assay results as given in patent US20100062437A1, “PARALLEL PROFILLING OF SIGNALING PATHWAYS” (priority 2007, published 2010).

Test system: DLD-1 cells
Assay: Degradation of long-lived proteins (proteolysis) in DLD-1 cells
Assay type: cell-based, human
Settings: ouabain treated; for effect on ouabain-induced increase in protein degradation: 20 mM NH4Cl and 100 μM leupeptine or 10 mM 3-methyladenine during the chase
Source text: The Na^+/K^+-ATPase is the common target of ouabain, digoxin, and digitoxin (Buckalew, 2005). Na^+/K^+-ATPase inhibition induces a plethora of effects including (a) disruption of the Na^+/K^+ gradient and consequent increase in intracellular [Ca^2+] (Grapengiesser et al., 1993), (b) interference with amino acid uptake (Johnson et al., 1986), and (c) the production of reactive oxygen species resulting in oxidative damage to proteins and organelles (Xie et al., 1999). Each of these individual events is either sufficient or necessary to promote autophagy. The latter maintains cell viability by furnishing essential biochemical building blocks via degradation of existing proteins and organelles in lysosomes (Levine and Klionsky, 2004). However, the effect of ouabain, or its cardiotonic congeners, on autophagy has not been examined. The later was explored by measuring rates of degradation of long-lived proteins, the preferential substrate for lysosomal degradation, in DLD-1 cells. […] The latter implies that macroautophagy, the degradation of sequestered material in a vesicular-based fashion, along with other types of autophagy (i.e. chaperone-mediated autophagy and microautophagy) contribute to ouabain-induced proteolysis.
Intracellular Protein Turnover. Rates of protein synthesis were measured in confluent cells as the incorporation of [3H]leucine [10 μCi/ml (1 Ci=37 GBq)] into acid-insoluble material in the presence of an excess (2.8 mM) of unlabeled leucine in the medium (to minimize differences due to alteration of amino acid transport and/or intracellular amino acid pool sizes). 28 To measure degradation of long-lived proteins, confluent cells were labeled with [3H]leucine (2 μCi/ml) for 48 h at 37° C. and then extensively washed and maintained in complete or amino acid depleted medium containing an excess of unlabeled leucine. Aliquots of the medium taken at different times were precipitated with trichloroacetic acid, and proteolysis was calculated as the amount of acid precipitable radioactivity converted into acid soluble at each time (Auteri et al., 1983). Where indicated, 20 mM NH4Cl and 100 μM leupeptine or 10 mM 3-methyladenine were added during the chase to block lysosomal proteolysis or macroautophagy, respectively.

Row | SMILES | effect on ouabain-induced increase in protein degradation | lysosomal degradation sensitive to 3-methyladenine (10 mM 3-methyladenine)
1 | CC(=O)N[C@@H](CC(C)C)C(=O)N[C@@H](CC(C)C)C(=O)N[C@H](C=O)CCCNC(=N)N [leupeptin] | completely blocked | 
2 | Cn1cnc(N)c2ncnc1-2 [3-methyladenine] | partially offsets the effect of ouabain | 30.5±3.4%
